Assay results reported in ChEMBL document CHEMBL5727989, “Compounds useful as inhibitors of ATR kinase” (2020).

molecular target: Serine/threonine-protein kinase ATR (Homo sapiens, UniProt Q13535); assay: Inhibition Assay: Assays were carried out at 25° C. in the presence of 5 nM full-length ATR. An assay stock buffer solution was prepared containing all of the reagents listed above, with the exception of ATP and the test compound of interest. 13.5 μL of the stock solution was placed in a 96 well plate followed by addition of 2 μL of DMSO stock containing serial dilutions of the test compound (typically starting from a final concentration of 15 μM with 3-fold serial dilutions) in duplicate (final DMSO concentration 7%). The plate was pre-incubated for 10 minutes at 25° C. and the reaction initiated by addition of 15 μL [γ-33P]ATP (final concentration 10 μM). The reaction was stopped after 24 hours by the addition of 30 μL 0.1M phosphoric acid containing 2 mM ATP. A multiscreen phosphocellulose filter 96-well plate (Millipore, Cat no. MAPHN0B50) was pretreated with 100 μL 0.2M phosphoric acid prior to the addition of 45 μL of the stopped assay mixture. The plate was washed with 5×200 μL 0.2M phosphoric acid. After drying, 100 μL Optiphase SuperMix liquid scintillation cocktail (Perkin Elmer) was added to the well prior to scintillation counting (1450 Microbeta Liquid Scintillation Counter, Wallac).
Sequence (Q13535 whole entry): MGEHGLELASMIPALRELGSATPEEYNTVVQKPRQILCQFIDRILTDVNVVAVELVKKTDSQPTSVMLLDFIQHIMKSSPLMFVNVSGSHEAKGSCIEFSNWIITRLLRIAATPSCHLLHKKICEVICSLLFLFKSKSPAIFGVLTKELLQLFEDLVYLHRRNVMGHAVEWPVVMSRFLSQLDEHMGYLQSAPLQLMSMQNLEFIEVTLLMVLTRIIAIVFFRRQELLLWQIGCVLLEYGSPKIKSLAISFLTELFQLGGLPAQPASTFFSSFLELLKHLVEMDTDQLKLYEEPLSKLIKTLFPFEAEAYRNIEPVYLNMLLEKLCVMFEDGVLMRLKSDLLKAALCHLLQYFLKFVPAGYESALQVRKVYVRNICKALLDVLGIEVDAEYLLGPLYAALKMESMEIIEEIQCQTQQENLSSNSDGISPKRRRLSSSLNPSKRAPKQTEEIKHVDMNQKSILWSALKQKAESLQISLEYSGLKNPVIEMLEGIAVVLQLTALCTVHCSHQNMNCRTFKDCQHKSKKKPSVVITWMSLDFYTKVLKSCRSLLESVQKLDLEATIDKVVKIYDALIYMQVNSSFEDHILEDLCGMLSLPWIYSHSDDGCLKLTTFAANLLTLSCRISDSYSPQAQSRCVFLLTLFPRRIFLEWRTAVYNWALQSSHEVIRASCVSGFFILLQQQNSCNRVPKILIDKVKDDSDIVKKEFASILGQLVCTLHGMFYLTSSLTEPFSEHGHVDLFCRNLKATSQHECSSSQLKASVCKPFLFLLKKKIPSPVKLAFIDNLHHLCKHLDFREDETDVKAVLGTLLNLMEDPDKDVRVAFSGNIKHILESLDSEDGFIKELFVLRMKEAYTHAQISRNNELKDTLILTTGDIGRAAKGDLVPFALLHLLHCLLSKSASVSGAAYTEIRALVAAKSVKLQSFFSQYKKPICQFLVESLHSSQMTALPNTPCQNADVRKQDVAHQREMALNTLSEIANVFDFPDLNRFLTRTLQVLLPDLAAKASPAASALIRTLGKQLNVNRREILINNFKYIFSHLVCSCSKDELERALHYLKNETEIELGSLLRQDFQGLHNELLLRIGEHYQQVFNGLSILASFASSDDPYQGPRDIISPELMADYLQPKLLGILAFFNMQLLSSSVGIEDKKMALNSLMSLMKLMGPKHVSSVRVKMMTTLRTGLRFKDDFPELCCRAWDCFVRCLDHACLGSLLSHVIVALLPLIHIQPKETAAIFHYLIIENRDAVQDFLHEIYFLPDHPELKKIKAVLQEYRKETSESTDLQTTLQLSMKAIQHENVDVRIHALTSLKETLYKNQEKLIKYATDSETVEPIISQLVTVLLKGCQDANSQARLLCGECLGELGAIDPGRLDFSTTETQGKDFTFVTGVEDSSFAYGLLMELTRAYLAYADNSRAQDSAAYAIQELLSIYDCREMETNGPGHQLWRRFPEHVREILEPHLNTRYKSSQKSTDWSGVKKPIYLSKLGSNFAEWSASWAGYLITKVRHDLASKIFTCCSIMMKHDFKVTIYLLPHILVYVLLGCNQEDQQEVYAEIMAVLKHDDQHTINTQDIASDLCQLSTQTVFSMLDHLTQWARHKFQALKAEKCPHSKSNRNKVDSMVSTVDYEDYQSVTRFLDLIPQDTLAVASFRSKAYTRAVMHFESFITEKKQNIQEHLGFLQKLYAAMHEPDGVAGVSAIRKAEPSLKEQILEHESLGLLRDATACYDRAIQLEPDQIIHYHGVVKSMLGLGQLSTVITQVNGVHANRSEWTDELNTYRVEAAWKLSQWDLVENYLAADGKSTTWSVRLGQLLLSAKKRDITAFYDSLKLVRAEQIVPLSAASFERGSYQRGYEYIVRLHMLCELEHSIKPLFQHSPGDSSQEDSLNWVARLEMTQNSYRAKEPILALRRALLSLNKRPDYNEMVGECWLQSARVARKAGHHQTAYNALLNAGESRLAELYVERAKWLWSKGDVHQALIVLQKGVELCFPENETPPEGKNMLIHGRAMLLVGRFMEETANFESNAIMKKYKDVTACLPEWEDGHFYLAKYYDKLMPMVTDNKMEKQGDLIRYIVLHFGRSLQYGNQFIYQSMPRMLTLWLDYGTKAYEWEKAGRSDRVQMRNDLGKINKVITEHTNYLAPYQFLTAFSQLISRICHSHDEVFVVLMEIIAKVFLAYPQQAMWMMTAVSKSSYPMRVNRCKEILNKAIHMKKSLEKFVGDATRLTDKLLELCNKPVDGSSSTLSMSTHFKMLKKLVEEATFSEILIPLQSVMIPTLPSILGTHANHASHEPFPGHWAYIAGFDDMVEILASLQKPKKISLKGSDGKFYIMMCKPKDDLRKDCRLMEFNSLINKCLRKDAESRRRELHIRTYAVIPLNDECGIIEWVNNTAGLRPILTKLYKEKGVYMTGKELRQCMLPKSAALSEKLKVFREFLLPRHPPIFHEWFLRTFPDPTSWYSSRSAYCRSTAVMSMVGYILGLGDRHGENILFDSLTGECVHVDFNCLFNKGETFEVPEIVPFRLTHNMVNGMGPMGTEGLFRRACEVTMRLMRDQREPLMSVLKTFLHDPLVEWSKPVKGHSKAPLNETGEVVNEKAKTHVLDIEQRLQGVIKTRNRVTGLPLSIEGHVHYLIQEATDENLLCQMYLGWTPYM

Ki, in the range around 505 nM:
COC1CCN(c2ccncc2NC(=O)c2c(N)nn3cc(F)cnc23)CC1
CNC(=O)C1CCN(c2c(F)cncc2NC(=O)c2c(N)nn3cc(F)cnc23)CC1
Nc1nn2cc(F)cnc2c1C(=O)Nc1cnccc1N1CCOCC1
Nc1nn2cc(F)cnc2c1C(=O)Nc1cnccc1N1CCCCC1
CN(C)CCNC(=O)C1CCN(c2c(F)cncc2NC(=O)c2c(N)nn3cc(F)cnc23)CC1
Cc1nn(C)cc1-c1ccncc1NC(=O)c1c(N)nn2cc(F)cnc12
